Measured values as given in US20220146526A1, “METHOD FOR EVALUATING SAMPLE, ANALYSIS METHOD, METHOD FOR DETECTING DEGRADED SAMPLE, MARKER FOR DETECTING DEGRADED BLOOD PLASMA SAMPLE, AND MARKER FOR DETECTING DEGRADED SERUM SAMPLE” (SHIMADZU CORPORATION, priority 2019, published 2022).

Assay: GC/MS of blood plasma sample: number of times of freezing and thawing (Table C)
Type: physicochemical, human
Details: detection intensity relative to 1 at 2 times, freezing and thawing 4 times
In short: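 Values express detection intensity as a ratio to the 2-cycle freeze-thaw sample (=1), compared with 4, 6 and 10 cycles. Healthy-donor EDTA plasma, cooled at ≤1 min or ≥5 min, spun at 4 °C, 3000 rpm, 15 min. Derivatised by methoxymation/trimethylsilylation; GC-MS/MS in MRM mode with electron ionization.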

Row | SMILES | Rate of increase or decrease
1 | OC[C@H]1O[C@@](CO)(O[C@H]2O[C@H](CO)[C@@H](O)[C@H](O)[C@H]2O)[C@@H](O)[C@@H]1O [Sucrose] | 0.53

Same assay, conditions: detection intensity relative to 1 at 2 times, freezing and thawing 6 times

Row | SMILES | Rate of increase or decrease
2 | OC[C@H]1O[C@H](O[C@H]2O[C@H](CO)[C@@H](O)[C@H](O)[C@H]2O)[C@H](O)[C@@H](O)[C@@H]1O [Trehalose] | 1.98

Same assay, conditions: detection intensity, freezing and thawing 4 times vs 2 times

Row | SMILES | Increase or decrease
3 | OC[C@H]1O[C@@](CO)(O[C@H]2O[C@H](CO)[C@@H](O)[C@H](O)[C@H]2O)[C@@H](O)[C@@H]1O [Sucrose] | Decrease

Same assay, conditions: detection intensity, freezing and thawing 6 times vs 2 times

Row | SMILES | Increase or decrease
4 | OC[C@H]1O[C@H](O[C@H]2O[C@H](CO)[C@@H](O)[C@H](O)[C@H]2O)[C@H](O)[C@@H](O)[C@@H]1O [Trehalose] | Increase

Assay: GC/MS of serum sample: number of times of freezing and thawing (Table I)
Type: physicochemical, human
Parameters: key to Rate of increase or decrease / Rate of increase or decrease (first value, increase): detection intensity relative to 2 freeze-thaw cycles = 1
Details: 10 times of freezing and thawing; detection intensity relative to 1 at 2 times
In short: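 Detection intensities are ratios to the value after two freeze–thaw cycles, which is set as 1, compared against 4, 6 and 10 cycles. Analysis used methoxymation and trimethylsilylation derivatization, then GC/MS with EI ionization and multiple reaction monitoring on a BPX5 column. Serum came from blood held at room temperature and spun at 3500 rpm for 5 min.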

Row | SMILES | Rate of increase or decrease
5 | OC[C@H]1O[C@H](O[C@H]2O[C@H](CO)[C@@H](O)[C@H](O)[C@H]2O)[C@H](O)[C@@H](O)[C@@H]1O [Trehalose] | 0.69
6 | OC[C@H]1O[C@@](CO)(O[C@H]2O[C@H](CO)[C@@H](O)[C@H](O)[C@H]2O)[C@@H](O)[C@@H]1O [Sucrose] | 0.64

Same assay, conditions: serum sample, GC/MS; detection intensity changed by 30% or more vs 2 times of freezing and thawing

Row | SMILES | Number of times when compound is affected
7 | OC[C@H]1O[C@H](O[C@H]2O[C@H](CO)[C@@H](O)[C@H](O)[C@H]2O)[C@H](O)[C@@H](O)[C@@H]1O [Trehalose] | 10 times
8 | OC[C@H]1O[C@@](CO)(O[C@H]2O[C@H](CO)[C@@H](O)[C@H](O)[C@H]2O)[C@@H](O)[C@@H]1O [Sucrose] | 10 times

Same assay, conditions: serum sample, GC/MS; detection intensity vs 2 times of freezing and thawing

Row | SMILES | Increase or decrease
9 | OC[C@H]1O[C@H](O[C@H]2O[C@H](CO)[C@@H](O)[C@H](O)[C@H]2O)[C@H](O)[C@@H](O)[C@@H]1O [Trehalose] | Decrease
10 | OC[C@H]1O[C@@](CO)(O[C@H]2O[C@H](CO)[C@@H](O)[C@H](O)[C@H]2O)[C@@H](O)[C@@H]1O [Sucrose] | Decrease

Assay: GC/MS of serum sample: time from blood collection to centrifugation (Table G)
Type: physicochemical, human
Details: detection intensity relative to 1 at 15 minutes, blood collection to centrifugation, after 4 hours
In short: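 Values express detection intensity as a ratio to the sample centrifuged 15 minutes after blood collection (taken as 1). Serum was derivatized by methoxymation and trimethylsilylation, then analysed by electron-ionization GC/MS using multiple reaction monitoring on a BPX5 column ramped from 60 to 330° C.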

Row | SMILES | Rate of increase or decrease
11 | OC[C@H]1O[C@@](CO)(O[C@H]2O[C@H](CO)[C@@H](O)[C@H](O)[C@H]2O)[C@@H](O)[C@@H]1O [Sucrose] | 18.00

Same assay, conditions: detection intensity relative to 1 at 15 minutes, blood collection to centrifugation, after 8 hours

Row | SMILES | Rate of increase or decrease
12 | OC[C@H]1O[C@H](O[C@H]2O[C@H](CO)[C@@H](O)[C@H](O)[C@H]2O)[C@H](O)[C@@H](O)[C@@H]1O [Trehalose] | 1.50

Same assay, conditions: detection intensity, blood collection to centrifugation, after 4 hours vs 15 minutes

Row | SMILES | Increase or decrease
13 | OC[C@H]1O[C@@](CO)(O[C@H]2O[C@H](CO)[C@@H](O)[C@H](O)[C@H]2O)[C@@H](O)[C@@H]1O [Sucrose] | Increase

Same assay, conditions: detection intensity, blood collection to centrifugation, after 8 hours vs 15 minutes

Row | SMILES | Increase or decrease
14 | OC[C@H]1O[C@H](O[C@H]2O[C@H](CO)[C@@H](O)[C@H](O)[C@H]2O)[C@H](O)[C@@H](O)[C@@H]1O [Trehalose] | Increase

Assay: GC/MS of blood plasma sample: time from blood collection to cooling of blood (Table B)
Type: physicochemical, human
Parameters: key to Rate of increase or decrease / Rate of increase or decrease (first value, increase): detection intensity relative to 1 at cooling time ≤1 min
Details: detection intensity, blood collection to cooling 5 minutes or more vs 1 minute or less
In short: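 Blood drawn at room temperature into EDTA tubes, mixed, then cooled at 4° C. within 1 minute or less versus 5 minutes or more before centrifugation (4° C., 3000 rpm, 15 minutes). Plasma was frozen, methoxymated and trimethylsilylated, and analysed by EI GC/MS in MRM mode. Values are detection intensity relative to the ≤1 minute condition.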

Row | SMILES | Increase or decrease
15 | OC[C@H]1O[C@H](O[C@H]2O[C@H](CO)[C@@H](O)[C@H](O)[C@H]2O)[C@H](O)[C@@H](O)[C@@H]1O [Trehalose] | Different from individual
16 | OC[C@H]1O[C@@](CO)(O[C@H]2O[C@H](CO)[C@@H](O)[C@H](O)[C@H]2O)[C@@H](O)[C@@H]1O [Sucrose] | Different from individual

Same assay, conditions: different from individual to individual, individuals with decrease, relative to 1 at 1 minute or less, collection to cooling 5 minutes

Row | SMILES | Rate of increase or decrease (second value, decrease)
17 | OC[C@H]1O[C@H](O[C@H]2O[C@H](CO)[C@@H](O)[C@H](O)[C@H]2O)[C@H](O)[C@@H](O)[C@@H]1O [Trehalose] | 0.58
18 | OC[C@H]1O[C@@](CO)(O[C@H]2O[C@H](CO)[C@@H](O)[C@H](O)[C@H]2O)[C@@H](O)[C@@H]1O [Sucrose] | 0.69

Same assay, conditions: different from individual to individual, individuals with increase, relative to 1 at 1 minute or less, collection to cooling 5 minutes

Row | SMILES | Rate of increase or decrease (first value, increase)
19 | OC[C@H]1O[C@H](O[C@H]2O[C@H](CO)[C@@H](O)[C@H](O)[C@H]2O)[C@H](O)[C@@H](O)[C@@H]1O [Trehalose] | 5.01
20 | OC[C@H]1O[C@@](CO)(O[C@H]2O[C@H](CO)[C@@H](O)[C@H](O)[C@H]2O)[C@@H](O)[C@@H]1O [Sucrose] | 2.20

Assay: GC/MS of serum sample: time from centrifugation to isolation (Table H)
Type: physicochemical, human
Parameters: key to Rate of increase or decrease / Rate of increase or decrease (first value, increase): detection intensity relative to 1 at 30 min centrifugation-to-isolation
Details: detection intensity relative to 1 at 30 minutes, after 1 hour
In short: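 Values are GC/MS (EI, MRM) detection intensities of methoxymated/trimethylsilylated serum, normalised to 1 for the 30-min sample. Serum was isolated 30 min, 1 h or 6 h after room-temperature centrifugation (3500 rpm, 5 min) of blood.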

Row | SMILES | Rate of increase or decrease
21 | OC[C@H]1O[C@H](O[C@H]2O[C@H](CO)[C@@H](O)[C@H](O)[C@H]2O)[C@H](O)[C@@H](O)[C@@H]1O [Trehalose] | 1.45
22 | OC[C@H]1O[C@@](CO)(O[C@H]2O[C@H](CO)[C@@H](O)[C@H](O)[C@H]2O)[C@@H](O)[C@@H]1O [Sucrose] | 2.12

Same assay, conditions: detection intensity, after 1 hour vs 30 minutes

Row | SMILES | Increase or decrease
23 | OC[C@H]1O[C@H](O[C@H]2O[C@H](CO)[C@@H](O)[C@H](O)[C@H]2O)[C@H](O)[C@@H](O)[C@@H]1O [Trehalose] | Increase
24 | OC[C@H]1O[C@@](CO)(O[C@H]2O[C@H](CO)[C@@H](O)[C@H](O)[C@H]2O)[C@@H](O)[C@@H]1O [Sucrose] | Increase

Assay: GC/MS of blood plasma sample: time from blood collection to centrifugation (Table A)
Type: physicochemical, human
Details: detection intensity relative to 1 at 15 minutes, blood collection to centrifugation, after 8 hours
In short: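 Read-out is MRM detection intensity by electron-ionization GC/MS on a BPX5 column after methoxymation and trimethylsilylation, expressed relative to a 15-minute collection-to-centrifugation interval. Plasma was prepared from EDTA blood held at 4° C and spun at 4° C, 3000 rpm for 15 minutes, then frozen.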

Row | SMILES | Rate of increase or decrease
25 | OC[C@H]1O[C@H](O[C@H]2O[C@H](CO)[C@@H](O)[C@H](O)[C@H]2O)[C@H](O)[C@@H](O)[C@@H]1O [Trehalose] | 0.56

Same assay, conditions: detection intensity, blood collection to centrifugation, after 4 hours vs 15 minutes

Row | SMILES | Increase or decrease
26 | OC[C@H]1O[C@@](CO)(O[C@H]2O[C@H](CO)[C@@H](O)[C@H](O)[C@H]2O)[C@@H](O)[C@@H]1O [Sucrose] | Different from individual

Same assay, conditions: detection intensity, blood collection to centrifugation, after 8 hours vs 15 minutes

Row | SMILES | Increase or decrease
27 | OC[C@H]1O[C@H](O[C@H]2O[C@H](CO)[C@@H](O)[C@H](O)[C@H]2O)[C@H](O)[C@@H](O)[C@@H]1O [Trehalose] | Decrease

Same assay, conditions: different from individual to individual, individuals with decrease, relative to 1 at 15 minutes, collection to centrifugation, after 4 hours

Row | SMILES | Rate of increase or decrease (second value, decrease)
28 | OC[C@H]1O[C@@](CO)(O[C@H]2O[C@H](CO)[C@@H](O)[C@H](O)[C@H]2O)[C@@H](O)[C@@H]1O [Sucrose] | 0.69

Same assay, conditions: different from individual to individual, individuals with increase, relative to 1 at 15 minutes, collection to centrifugation, after 4 hours

Row | SMILES | Rate of increase or decrease (first value, increase)
29 | OC[C@H]1O[C@@](CO)(O[C@H]2O[C@H](CO)[C@@H](O)[C@H](O)[C@H]2O)[C@@H](O)[C@@H]1O [Sucrose] | 2.53
